The text below walks through data of article PMC6384922, “Potent in Vitro α-Glucosidase Inhibition of Secondary Metabolites Derived from Dryopteris cycadina” (Molecules, 2019).

Assay [1] addresses T1, α-glucosidase (EC3.2.1.20) (Saccharomyces cerevisiae, UniProt P07265).
T1 construct: purchased Sigma Aldrich
The assay is described as follows: biochemical. As to conditions: for IC50: α-glucosidase, mean ± SEM of three independent readings; for inhibition at 500 µM: read-out: maximum α-glucosidase inhibitory activity (% inhibition). The protocol:
The α-glucosidase (Saccharomyces cerevisiae) inhibitory assay was carried out with slight modifications according to the method described in [21, 26, 27]. For the evaluation of α-glucosidase inhibitory activity, 10 µl of freshly prepared phosphate buffer (pH 6.8) were plated in triplicate for a micro-well plate with the help of a micropipette. Then, 30 µL of α-glucosidase enzyme with a concentration of 0.017 units/mL of 70% ethanol and 10 µL of test compound solution were added to the same well plate. The plates were then incubated for 15 min at 37 °C and an initial reading was taken at 405 nm using the ELISA micro plate reader. Furthermore, 100 µl of 0.7mM PNPG substrate was added to each well of the plate and again incubated at 37 °C for 30 min, forming a yellow color. The final reading was taken again at λ max 405 nm using the ELISA plate reader. […] Each reading was taken in triplicate. The percent inhibition was calculated using the following formula, % inhibition = [(A negative control − A test sample)/A negative control] × 100, where A is absorbance.
The half-maximal inhibitory concentration values were determined using the Graphpad Prism version 7.0 software (San Diego, CA, USA. All values are represented as mean ± SEM.

For assay [2], the target named is T1, α-glucosidase (EC3.2.1.20). Also noted: method as in PMID 18341288. The note with it: cited from earlier work.

Where “and” joins values, the source holds several entries; their conditions need not be identical. Equal entries are not always repeated. Where two headings read alike, the source gives them in different places.

T1 sequence (P07265 whole entry): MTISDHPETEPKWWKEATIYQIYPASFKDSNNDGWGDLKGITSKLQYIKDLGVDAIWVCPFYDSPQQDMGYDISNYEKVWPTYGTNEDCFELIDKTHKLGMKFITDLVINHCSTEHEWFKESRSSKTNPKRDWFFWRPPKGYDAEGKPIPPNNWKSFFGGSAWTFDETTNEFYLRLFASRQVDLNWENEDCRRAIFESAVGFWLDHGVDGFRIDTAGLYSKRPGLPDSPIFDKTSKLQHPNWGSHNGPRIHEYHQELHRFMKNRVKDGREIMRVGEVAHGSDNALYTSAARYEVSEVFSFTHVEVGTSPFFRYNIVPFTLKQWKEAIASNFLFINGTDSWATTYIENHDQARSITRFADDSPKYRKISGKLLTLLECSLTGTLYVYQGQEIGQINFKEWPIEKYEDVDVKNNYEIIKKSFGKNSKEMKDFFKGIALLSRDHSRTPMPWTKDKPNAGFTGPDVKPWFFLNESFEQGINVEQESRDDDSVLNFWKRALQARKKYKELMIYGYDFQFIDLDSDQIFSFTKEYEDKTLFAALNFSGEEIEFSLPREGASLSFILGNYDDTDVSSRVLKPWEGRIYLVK

As for `Cc1ccc(C2Oc3cc(O)cc(O)c3C(=O)C2O)cc1` (stereo not shown) [Compound 3, 3,5,7-trihydroxy-2-(p-tolyl) chorman-4-one], the IC50 in assay [1] (IC50 ± SEM) was 136 µM and 133 µM. In assay [1], the inhibition at 500 µM worked out at 94%.

The molecule `CC[C@H](CC[C@@H](C)[C@H]1CC[C@H]2[C@@H]3CC=C4C[C@@H](O)CC[C@]4(C)[C@H]3CC[C@]12C)C(C)C` [Compound 1, β-Sitosterol] had an IC50 in assay [1] (IC50 ± SEM) of 143 ± 0.47 µM. Moreover, the inhibition at 500 µM in assay [1] came to 92.9%. Moreover, in assay [2], the “α-glucosidase inhibitory activity in previous studies” value is “inactive”.

Consider `CCC(CCC(C)C1CCC2C3CC=C4CC(OC5OC(CO)C(O)C(O)C5O)CCC4(C)C3CCC12C)C(C)C` [Compound 2, β-Sitosterol3-O-β-D-glucopyranoside], for which, in assay [1], the inhibition at 500 µM was 92%. Also, in assay [1] (read-out: IC50 ± SEM), the IC50 turned out to be 314 ± 4.58 µM.

One may read the IC50 as the concentration at which inhibition is half-maximal. A word on the inhibition: it is the relative decrease from the control value, in per cent.
